Assay results as given in patent US10830772B2, “Detection method and kit” (The European Union, represented by the European Commission, priority 2015, dated 2020).

System: AhR2 from zebrafish
Assay: Fluorescence binding of the ligand probe to recombinant AhR protein (excitation 280 nm, emission 450 nm)
Source text: The inventors expressed the encoding gene sequence for the AhR2 from zebrafish in Escherichia coli cells to produce the high yield of a 600 amino acid recombinant protein. The protein was purified by using Histidine tag affinity column. The protocol used allowed to obtain a good yield of pure protein that is correctly folded.
The inventors developed an assay for the Aryl Hydrocarbon Receptor binding activity as an alternative to known methods and investigated which molecules are the most suitable for building a competitive binding assay as in vitro ligands, and to make these molecules fluorescent or more fluorescent. […] The same concentration of ethyl 5,11-dihydroindolo[3,2-b]carbazole-6-carboxylate in aqueous buffer environment has a very low fluorescence signal (FIG. 1, bottom line at 328 nm). […] Indeed if ethyl 5,11-dihydroindolo[3,2-b]carbazole-6-carboxylate is a ligand of AhR it moves from an aqueous environment (buffer) to a more hydrophobic environment (hydrophobic internal binding site of the AhR receptor), causing the increase in fluorescence emission at 450 nm.

CCOC(=O)c1c2[nH]c3ccccc3c2cc2[nH]c3ccccc3c12 [ethyl 5,11-dihydroindolo[3,2-b]carbazole-6-carboxylate]
fluorescence emission on addition to the AhR (binding into the active site) (excited at 280 nm, buffer environment, FIG. 1): causes the appearance of an emission peak with maximum at 450 nm
binding affinity to AhR (result in words, suitability for competitive binding assays): high enough to allow the competition of other compounds to the receptor, yet not too high
